The source of these data is patent publication US10077261B2, “Imidazolin-5-one derivative useful as FASN inhibitors for the treatment of cancer” (Janssen Pharmaceutica NV, priority 2012, dated 2018).

For orientation: inhibition means the relative decrease from the control value, in per cent.

Assay [1] deals with A2780 ovarian cells. The assay can be described thus: A2780 ovarian cell proliferation assay in lipid reduced medium, without palmitate (MTT). As to conditions: Homo sapiens, A2780, 96 h; read-out: pIC50 A2780 Ovarian Cell, Without Palmitate (converted). In kind it is cell-based.
In assay [2] the test system is A2780 ovarian cells. The assay can be described thus: A2780 ovarian cell proliferation assay in lipid reduced medium, with palmitate (MTT). It counts as cell-based. The note with it: Homo sapiens, A2780, 96 h; read-out: pIC50 A2780 Ovarian Cell, With Palmitate (converted). In a few lines: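 Seeded cells were switched next day to lipid-reduced serum, exposed to compound and 25 μM palmitate complexed with fatty-acid-free BSA, and incubated 96 h. Proliferation was then determined by MTT absorbance at 544 nm, with a best-fit curve of signal against concentration.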

Assay [3] addresses T1, hFASN enzyme (full length) (Homo sapiens, UniProt P49327).
T1 construct: 10 μL hFASN enzyme (full length, 300 ng, purified in house); made in house
The assay can be described thus: Fatty Acid Synthase (FASN) inhibition scintillation proximity assay. In kind it is biochemical. The note with it: for inhibition at 10 µM: read-out: Human FASN % inhibition @ 10 μM, 10 μM test compound; for IC50: read-out: Human FASN pIC50 (converted). The gist of the method:
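Full-length in-house purified enzyme (300 ng) was tested in 100 mM KH2PO4 pH 7.5, 1 mM DTT with ³H-acetyl-CoA and malonyl-CoA as substrates; compounds ranged 0.01–30 μM. Reactions were stopped with streptavidin imaging beads, read by LEADseeker at 610 nm, and fitted to a 4-parameter logistic curve.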

T1 sequence (P49327 whole entry): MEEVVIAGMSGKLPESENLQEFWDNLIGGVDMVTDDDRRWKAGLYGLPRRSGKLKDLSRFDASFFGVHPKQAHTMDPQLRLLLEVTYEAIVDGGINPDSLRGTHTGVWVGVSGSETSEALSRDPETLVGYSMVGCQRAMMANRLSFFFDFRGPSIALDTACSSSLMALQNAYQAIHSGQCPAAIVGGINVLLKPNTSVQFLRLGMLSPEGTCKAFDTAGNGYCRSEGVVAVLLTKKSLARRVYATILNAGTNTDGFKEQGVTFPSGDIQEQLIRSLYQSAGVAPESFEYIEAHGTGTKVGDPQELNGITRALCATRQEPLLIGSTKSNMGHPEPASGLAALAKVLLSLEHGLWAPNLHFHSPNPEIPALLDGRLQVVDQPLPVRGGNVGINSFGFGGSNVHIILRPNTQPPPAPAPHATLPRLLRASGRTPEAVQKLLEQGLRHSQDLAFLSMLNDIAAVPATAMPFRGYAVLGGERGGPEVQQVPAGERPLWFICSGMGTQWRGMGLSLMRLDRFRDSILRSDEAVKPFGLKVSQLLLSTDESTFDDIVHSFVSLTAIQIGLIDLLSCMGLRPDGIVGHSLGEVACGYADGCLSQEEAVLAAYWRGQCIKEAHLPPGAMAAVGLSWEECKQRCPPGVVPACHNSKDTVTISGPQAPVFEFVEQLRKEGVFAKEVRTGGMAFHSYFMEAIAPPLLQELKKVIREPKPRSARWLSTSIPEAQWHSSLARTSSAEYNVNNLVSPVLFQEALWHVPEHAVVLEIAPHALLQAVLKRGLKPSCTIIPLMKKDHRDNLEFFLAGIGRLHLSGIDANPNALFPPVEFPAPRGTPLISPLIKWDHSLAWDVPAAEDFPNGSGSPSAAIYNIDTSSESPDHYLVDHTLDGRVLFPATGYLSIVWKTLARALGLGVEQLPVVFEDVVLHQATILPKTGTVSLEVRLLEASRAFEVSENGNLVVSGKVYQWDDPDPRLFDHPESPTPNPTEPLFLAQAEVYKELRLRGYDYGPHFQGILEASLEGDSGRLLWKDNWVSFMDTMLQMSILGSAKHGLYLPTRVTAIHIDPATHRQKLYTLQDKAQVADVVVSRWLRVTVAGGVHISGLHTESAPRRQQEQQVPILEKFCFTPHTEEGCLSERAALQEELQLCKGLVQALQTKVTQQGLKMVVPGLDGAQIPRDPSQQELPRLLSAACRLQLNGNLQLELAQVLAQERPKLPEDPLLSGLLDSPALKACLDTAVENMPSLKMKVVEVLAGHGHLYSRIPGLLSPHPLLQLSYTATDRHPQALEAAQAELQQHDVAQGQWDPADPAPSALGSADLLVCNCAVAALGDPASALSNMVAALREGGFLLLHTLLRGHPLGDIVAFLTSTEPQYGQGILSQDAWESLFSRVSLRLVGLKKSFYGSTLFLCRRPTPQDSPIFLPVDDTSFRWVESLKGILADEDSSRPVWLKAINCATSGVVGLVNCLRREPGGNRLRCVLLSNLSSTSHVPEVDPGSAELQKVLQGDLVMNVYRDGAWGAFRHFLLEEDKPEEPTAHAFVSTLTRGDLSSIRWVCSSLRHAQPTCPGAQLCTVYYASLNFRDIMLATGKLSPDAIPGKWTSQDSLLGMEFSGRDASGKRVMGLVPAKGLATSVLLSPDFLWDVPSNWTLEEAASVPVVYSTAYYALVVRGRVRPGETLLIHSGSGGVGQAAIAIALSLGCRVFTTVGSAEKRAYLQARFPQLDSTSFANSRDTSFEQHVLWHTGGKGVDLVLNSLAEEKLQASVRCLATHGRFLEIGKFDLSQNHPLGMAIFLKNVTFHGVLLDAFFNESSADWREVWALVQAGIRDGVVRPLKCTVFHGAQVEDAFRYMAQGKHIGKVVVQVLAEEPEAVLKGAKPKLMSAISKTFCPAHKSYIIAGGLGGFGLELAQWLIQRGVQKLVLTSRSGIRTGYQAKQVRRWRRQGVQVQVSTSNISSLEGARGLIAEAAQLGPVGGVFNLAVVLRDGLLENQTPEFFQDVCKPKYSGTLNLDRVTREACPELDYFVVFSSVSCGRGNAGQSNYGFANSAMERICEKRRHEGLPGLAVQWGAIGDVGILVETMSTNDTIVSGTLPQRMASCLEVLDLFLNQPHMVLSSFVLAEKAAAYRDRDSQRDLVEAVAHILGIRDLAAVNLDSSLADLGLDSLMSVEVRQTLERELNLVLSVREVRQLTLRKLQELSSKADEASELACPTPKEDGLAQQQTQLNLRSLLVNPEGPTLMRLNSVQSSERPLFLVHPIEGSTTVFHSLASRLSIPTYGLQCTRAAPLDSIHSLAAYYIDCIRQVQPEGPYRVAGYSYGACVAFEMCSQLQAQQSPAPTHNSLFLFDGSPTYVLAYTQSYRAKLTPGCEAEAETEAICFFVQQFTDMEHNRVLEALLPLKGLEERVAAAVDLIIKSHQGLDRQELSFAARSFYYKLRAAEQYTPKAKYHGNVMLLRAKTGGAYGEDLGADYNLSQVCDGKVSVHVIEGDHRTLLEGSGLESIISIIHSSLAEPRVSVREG

As to `O=C(C1CC1)N1CC(CN2C(=O)C3(CC3)N=C2c2ccc(-c3ccc4c(cnn4C4COC4)c3)cc2F)C1` [compound 789, 6-((1-(cyclopropanecarbonyl)azetidin-3-yl)methyl)-5-(2-fluoro-4-(1-(oxetan-3-yl)-1H-indazol-5-yl)phenyl)-4,6-diazaspiro[2.4]hept-4-en-7-one], the IC50 in assay [1], in assay [2] and in assay [3] was > 10 µM each time. Moreover, in assay [3], the inhibition at 10 µM was found to be 26%.

Regarding `Cc1ccc2c(-c3ccc(C4=NC5(CC5)C(=O)N4CC4CN(C(=O)C5CC5)C4)cc3)cccc2n1` [compound 790, 6-((1-(cyclopropanecarbonyl)azetidin-3-yl)methyl)-5-(4-(2-methy7lquinolin-5-yl)phenyl)-4,6-diazaspiro[2.4]jept-4-en-7-one], the IC50 in assay [1], in assay [2] and in assay [3] was > 10 µM in each case. In assay [3], the inhibition at 10 µM was found to be 47%.

As to `Cc1cc(-c2ccc(C3=NC4(CC4)C(=O)N3CC3CN(C(=O)C4CC4)C3)cc2)nc2cc(Br)ccc12` [compound 791, 5-(4-(7-bromo-4-methylquinolin-2-yl)phenyl)-6-((1-(cyclopropanecarbonyl)azetidin-3-yl)methyl)4,6-diazaspiro[2.4]hept-4-en-7-one], the IC50 was > 6.17 µM in assay [1], > 6.17 µM in assay [2] and > 10 µM in assay [3]. Moreover, in assay [3], the inhibition at 10 µM is -2%.

As for `Cn1ncc2nc(-c3ccc(C4=NC5(CC5)C(=O)N4CC4CN(C(=O)C5CC5)C4)cc3)ccc21` [compound 792, 6-((1-(cyclopropanecarbonyl)azetidin-3-yl)methyl)-5-(4-(1-methyl-1H-pyrazolo[4,3-b]pyridin-5-yl)phenyl)-4,6-diazaspiro[2.4]hept-4-en-7-one], the IC50 in assay [1], in assay [2] and in assay [3] was > 10 µM in each case. The inhibition at 10 µM in assay [3] was found to be 38%.

As for `Cc1nnc2ccc(-c3ccc(C4=NC5(CC5)C(=O)N4CC4CN(C(=O)C5CC5)C4)cc3)cn12` [compound 793, 6-((1-(cyclopropanecarbonyl)azetidin-3-yl)methyl)-5-(4-(3-methyl-[1,2,4]triazolo[4,3-a]pyridin-6-yl)phenyl)-4,6-diazaspiro[2.4]hept-4-en-7-one], the IC50 in assay [1], in assay [2] and in assay [3] was > 10 µM throughout. The inhibition at 10 µM in assay [3] is 13%.

`CC(C)(O)c1ccc(-c2ccc(C3=NC4(CC4)C(=O)N3CC3CN(C(=O)C4CC4)C3)cc2)nc1` [compound 794, 6-((1-(cyclopropanecarbonyl)azetidin-3-yl)methyl)-5-(4-(5-(2-hydroxypropan-2-yl)pyridin-2-yl)phenyl)-4,6-diazaspiro[2.4]hept-4-en-7-one]: the IC50 in assay [1], in assay [2] and in assay [3] was > 10 µM each time. For the same compound, the inhibition at 10 µM in assay [3] is -15%.

In the case of `CCCc1ccc(-c2ccc(C3=NC4(CC4)C(=O)N3CC3CN(C(=O)C4CC4)C3)cc2)cn1` [compound 795, 6-((1-(cyclopropanecarbonyl)azetidin-3-yl)methyl)-5-(4-(6-propylpyridin-3-yl)phenyl)-4,6-diazaspiro[2.4]hept-4-en-7-one], the IC50 in assay [1], in assay [2] and in assay [3] was > 10 µM throughout. Besides, in assay [3], the inhibition at 10 µM was 34%.

As to `COC(=O)N1CC2(C1)N=C(c1ccc(-c3ccc(-c4cnn(C)c4)cc3)cc1)N(C[C@@H]1CCN(S(C)(=O)=O)C1)C2=O` [compound 891, (S)-methyl 6-(4′-(1-methyl-1H-pyrazol-4-yl)-[1,1′-biphenyl]-4-yl)-7-((1-(methylsulfonyl)pyrrolidin-3-yl)methyl)-8-oxo-2,5,7-triazaspiro]3.4[ovt-5-ene-2-carboxylate], the IC50 in assay [1], in assay [2] and in assay [3] was > 10 µM throughout. Moreover, the inhibition at 10 µM in assay [3] is 8%.

`CS(=O)(=O)N1CCC(CN2C(=O)C3(CCOC3)N=C2c2ccc(-c3ccc4cccnc4c3)cc2)C1` (stereo not shown) [compound 896, 3-((1-(methylsulfonyl)pyrrolidin-3-yl)methyl)-2-(4-(quinolin-7-yl)phenyl)-7-oxa-1,3-diazaspiro[4.4]non-1-en-4-one]: the IC50 in assay [1], in assay [2] and in assay [3] was > 10 µM in each case. For the same compound, the inhibition at 10 µM in assay [3] was 10%.

`O=C(N1CC(CN2C(=O)C3(CCOC3)N=C2c2ccc(-c3ccc4occc4c3)cc2)C1)C(F)(F)F` (stereo not shown) [compound 897, 2-(4-(benzofuran-5-yl)phenyl)-3-((1-(2,2,2-trifluoroacetyl)azetidin-3-yl)methyl)-7-oxa-1,3-diazaspiro[4.4]non-1-en-4-one]: the IC50 in assay [1], in assay [2] and in assay [3] was > 10 µM throughout. Besides, the inhibition at 10 µM in assay [3] was determined as 15%.

`CS(=O)(=O)N1CC(CN2C(=O)C3(CCOC3)N=C2c2ccc(-c3ccc4occc4c3)cc2)C1` (stereo not shown) [compound 898, 2-(4-(benzofuran-5-yl)phenyl)-3-((1-(methylsulfonyl)azetidin-3-yl)methyl)-7-oxa-1,3-diazaspiro[4.4]non-1-en-4-one]: the IC50 in assay [1], in assay [2] and in assay [3] was > 10 µM in each case. In assay [3], the inhibition at 10 µM worked out at 6%.

On to `Cn1cc(-c2ccc(-c3ccc(C4=NC5(CCOC5)C(=O)N4CC4CN(C(=O)C(F)(F)F)C4)cc3)cc2)cn1` (stereo not shown) [compound 899, 2-(4′-(1-methyl-1H-pyrazol-4-yl)-[1,1′-biphenyl]-4-yl)-3-((1-(2,2,2-trifluoroacetyl)azetidin-3-yl)methyl)-7-oxa-1,3-diazaspiro[4.4]non-1-en-4-one], for which the IC50 in assay [1], in assay [2] and in assay [3] was > 10 µM each time. In assay [3], the inhibition at 10 µM was -10%.

As for `COC(=O)N1CC2(C1)N=C(c1ccc(-c3ccc4cccnc4c3)cc1)N(C[C@@H]1CCN(S(C)(=O)=O)C1)C2=O` [compound 900, (S)-methyl 7-((1-(methylsulfionyl)pyrrolidin-3-yl)methyl)-8-oxo-6-(4-(quinolin-7-yl)phenyl)-2,5,7-triazaspiro[3.4]oct-5-ene-2-carboxylate], the IC50 in assay [1], in assay [2] and in assay [3] was > 10 µM each time. Besides, the inhibition at 10 µM in assay [3] stood at 9%.

Take `Cn1cc(-c2ccc(-c3ccc(C4=NC5(CCOCC5)C(=O)N4C[C@@H]4CCN(S(C)(=O)=O)C4)cc3)cc2)cn1` [compound 918, (S)-2-(4′-(1-metrhyl-1H-pyrazol-4-yl)-[1,1′-biphenyl]-4-yl)-3-((1-(methylsulfonyl)pyrrolidin-3-yl)methyl)-8-oxa-1,3-diazaspiro[4.5]dec-1-en-4-one]: the IC50 in assay [1], in assay [2] and in assay [3] was > 10 µM in each case. For the same compound, in assay [3], the inhibition at 10 µM is 2%.

`COC(=O)N1CC(CN2C(=O)C3(CCOCC3)N=C2c2ccc(-c3ccc4cccnc4c3)cc2)C1` [compound 922, methyl 3-((4-oxo-2-(4-(quinolin-7-yl)phenyl)-8-oxa-1,3-diazaspiro[4.5]dec-1-en-3-yl)methyl)azetidine-1-carboxylate]: the IC50 in assay [1], in assay [2] and in assay [3] was > 10 µM in each case. Also, the inhibition at 10 µM in assay [3] was determined as 38%.

Consider `COC(=O)N1CC2(C1)N=C(c1ccc(-c3ccc4c(cnn4C)c3)cc1)N(C[C@@H]1CCN(C(=O)c3nccs3)C1)C2=O` [compound 923, (R)-methyl 6-(4-(1-methyl-1H-indazol-5-yl)phenyl)-8-oxo-7-((1-(thiazole-2-carbonyl)pyrrolidin-3-yl)methyl)-2,5,7-triazaspiro[3.4]oct-5-ene-2-carboxylate], for which the IC50 in assay [1], in assay [2] and in assay [3] was > 10 µM throughout. Moreover, the inhibition at 10 µM in assay [3] is 27%.

As for `Cn1ncc2cc(-c3ccc(C4=NC5(CCOC5)C(=O)N4CC4CN(C(=O)C(F)(F)F)C4)cc3)ccc21` (stereo not shown) [compound 937, 2-(4-(1-methyl-1H-indazol-5-yl)phenyl)-3-((1-(2,2,2-trifluoroacetyl)azetidin-3-yl)methyl)-7-oxa-1,3-diazaspiro[4.4]non-1-en-4-one], the IC50 in assay [1], in assay [2] and in assay [3] was > 10 µM throughout. Besides, the inhibition at 10 µM in assay [3] is -9%.

Consider `O=C(N1CCC(CN2C(=O)C3(CCOC3)N=C2c2ccc(-c3ccc4occc4c3)cc2)C1)C(F)(F)F` (stereo not shown) [compound 938, 2-(4-(benzofuran-5-yl)phenyl)-3-((1-(2,2,2-trifluoroacetyl)pyrrolidin-3-yl)methyl)-7-oxa-1,3-diazaspiro[4.4]non-1-en-4-one], for which the IC50 in assay [1] was 7.94 µM; in assay [2], > 10 µM; in assay [3], > 10 µM. In addition, the inhibition at 10 µM in assay [3] worked out at 43%.

Regarding `Cn1cc(-c2ccc(-c3ccc(C4=NC5(CCOC5)C(=O)N4CC4CCN(S(C)(=O)=O)C4)cc3)cc2)cn1` (stereo not shown) [compound 939, 2-(4′-(1-methyl-1H-pyrazol-4-yl)-[1,1′-biphenyl]-4-yl)-3-((1-(methylsulfonyl)pyrrolidin-3-yl)methyl)-7-oxa-1,3-diazaspiro[4.4]non-1-en-4-one], the IC50 in assay [1], in assay [2] and in assay [3] was > 10 µM each time. Besides, the inhibition at 10 µM in assay [3] was 2%.
